Results taken from patent US20070117743A1, “New antitumoral compounds” (priority 2003, published 2007).
Read-outs that look alike come from different tables or passages of the source. Where a SMILES comes first, the peptide text is derived from it. Bridges are numbered along the chain shown (N, C = ends). [ ]: non-standard residue; d: D form. The star is where a group is joined. d(aIle) = CC[C@H](C)[C@@H](N)C(=O)O; d(aThr) = C[C@@H](O)[C@@H](N)C(=O)O; Hexanoyl(5-Me) = CC(C)CCCC(=O)*; Myristoyl = CCCCCCCCCCCCCC(=O)*; Orn = NCCC[C@H](N)C(=O)O; Dhb = C/C=C(\N)C(=O)O

Tests used:
Type in all cases: cell-based, human
LoVo = assay: SRB colorimetric assay of cell growth and viability, LoVo; details: 48 hours exposure
SK-MEL-28 = assay: SRB colorimetric assay of cell growth and viability, SK-MEL-28; details: 48 hours exposure
A-549 = assay: SRB colorimetric assay of cell growth and viability, A-549; details: 48 hours exposure
IGROV-1 = assay: SRB colorimetric assay of cell growth and viability, IGROV-1; details: 48 hours exposure
SK-OV-3 = assay: SRB colorimetric assay of cell growth and viability, SK-OV-3; details: 48 hours exposure
From the text: (§1) The finality of this assay is to interrupt the growth of a “in vitro” tumor cell culture by means a continued exhibition of the cells to the sample to be testing.
(§2) A colorimetric type of assay, using sulforhodamine B (SRB) reaction has been adapted for a quantitative measurement of cell growth and viability [following the technique described by Philip Skehan, et al. (1990), New colorimetric cytotoxicity assay for anticancer drug screening, J. Natl. Cancer Inst., 82:1107-1112].
(§3) This form of the assay employs 96 well cell culture microplates of 9 mm diameter (Faircloth, 1988; Mosmann, 1983). Most of the cell lines are obtained from American Type Culture Collection (ATCC) derived from different human cancer types.
(§4) Cells are maintained in RPMI 1640 10% FBS, supplemented with 0.1 g/l penicillin and 0.1 g/l streptomycin sulfate and then incubated at 37° C., 5% CO2 and 98% humidity. For the experiments, cells were harvested from subconfluent cultures using trypsin and resuspended in fresh medium before plating.
(§5) Cells are seeded in 96 well microtiter plates, at 5×10^3 cells per well in aliquots of 195 μL medium, and they are allowed to attach to the plate surface by growing in drug free medium for 18 hours. Afterward, samples are added in aliquots of 5 μL in a ranging from 10 to 10^−8 μg/mL, dissolved in DMSO:EtOH:PBS (0.5:0.5:99). After 48 hours exposure, the antitumor effect are measured by the SRB methodology: cells are fixed by adding 50 μL of cold 50% (wt/vol) trichloroacetic acid (TCA) and incubating for 60 minutes at 4° C. Plates are washed with deionized water and dried. One hundred μL of SRB solution (0.4% wt/vol in 1% acetic acid) is added to each microtiter well and incubated for 10 minutes at room temperature. Unbound SRB is removed by washing with 1% acetic acid. Plates are air dried and bound stain is solubilized with Tris buffer. Optical densities are read on a automated spectrophotometric plate reader at a single wavelength of 490 nm.
(§6) The values for mean+/− SD of data from triplicate wells are calculated. Some parameters for cellular responses can be calculated: GI=growth inhibition, TGI=total growth inhibition (cytostatic effect) and LC=cell killing (cytotoxic effect).

LoVo-Dox = assay: SRB colorimetric assay of cell growth and viability, LoVo-Dox; details: 48 hours exposure
How it was run: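 Optical density at 490 nm of solubilized SRB, from triplicate wells, yields GI, TGI and LC values. Before staining, cells are fixed for 60 minutes at 4° C in cold TCA after a 48-hour exposure.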

HT-29 = assay: SRB colorimetric assay of cell growth and viability, HT-29; details: 48 hours exposure
IGROV-ET = assay: SRB colorimetric assay of cell growth and viability, IGROV-ET; details: 48 hours exposure
PANC-1 = assay: SRB colorimetric assay of cell growth and viability, PANC-1; details: 48 hours exposure
DU-145 = assay: SRB colorimetric assay of cell growth and viability, DU-145; details: 48 hours exposure
LNCaP = assay: SRB colorimetric assay of cell growth and viability, LNCaP; details: 48 hours exposure
K-562 = assay: SRB colorimetric assay of cell growth and viability, K-562; details: 48 hours exposure
MB-231 = assay: SRB colorimetric assay of cell growth and viability, MB-231; details: for TGI (total growth inhibition): MB-231 cells, 48 hours exposure
From the text: as §1, §2, §3, §4, §5, §6

[1] = read-out: GI50 (growth inhibition at 50%), A-549 cells, SRB
[2] = read-out: LC50 (lethal concentration at 50%), A-549 cells, SRB
[3] = read-out: GI50 (growth inhibition at 50%), HT-29 cells, SRB
[4] = read-out: LC50 (lethal concentration at 50%), HT-29 cells, SRB

C/C=C1\NC(=O)[C@H](Cc2ccccc2)NC(=O)[C@@H](C(C)C)NC(=O)[C@@H]([C@@H](C)CC)NC(=O)[C@H](NC(=O)[C@H](NC(=O)[C@H](CCCN)NC(=O)[C@H]2CCCN2C(=O)[C@H](NC(=O)CCCCCCCCCCCCC)C(C)C)[C@@H](C)CC)[C@@H](C)OC(=O)[C@H](C(C)C)NC1=O [Compound 32, [noVal^11, noThr^12, noD-Val^13, Mst^14]-KF] (Myristoyl-[dV][dP][Orn][d(aIle)][d(aThr)][d(aIle)][dV]F[Dhb]V; ester 5-C)
GI50 (LoVo): 7.83 µM
TGI LOVO (LoVo): 7.83E−06 Molar
CC50 (LoVo; read-out: LC50 LOVO): 7.83 µM
GI50 (SK-MEL-28): 2.08 µM
TGI MEL-28 (SK-MEL-28): 3.63E−06 Molar
CC50 (SK-MEL-28; read-out: LC50 MEL-28): 6.34 µM
TGI A-549 (A-549): 7.83E−06 Molar
GI50 (A-549; read-out: GI50 A-549): 5.19 µM
CC50 (A-549; read-out: LC50 A-549): 7.83 µM
GI50 (IGROV-1): 2.29 µM
LC50 (concentration causing 50% net cell killing) (IGROV-1): 5.51 µM
TGI IGROV (IGROV-1): 3.56E−06 Molar
TGI SKOV-3 (SK-OV-3): 6.27E−06 Molar
GI50 (SK-OV-3; read-out: GI50 SKOV-3): 2.34 µM
CC50 (SK-OV-3; read-out: LC50 SKOV-3): 7.83 µM
GI50 (LoVo-Dox): 2.15 µM
TGI LOVO-DOX (LoVo-Dox): 3.66E−06 Molar
CC50 (LoVo-Dox; read-out: LC50 LOVO-DOX): 6.21 µM
TGI HT-29 (HT-29): 7.83E−06 Molar
GI50 (HT-29; read-out: GI50 HT-29): 7.66 µM
CC50 (HT-29; read-out: LC50 HT-29): 7.83 µM
GI50 (IGROV-ET): 2.06 µM
TGI IGROV-ET (IGROV-ET): 3.26E−06 Molar
CC50 (IGROV-ET; read-out: LC50 IGROV-ET): 5.16 µM
GI50 (PANC-1): 1.78 µM
TGI PANC-1 (PANC-1): 3.12E−06 Molar
CC50 (PANC-1; read-out: LC50 PANC-1): 5.49 µM
GI50 (DU-145): 2.12 µM
LC50 (concentration causing 50% net cell kill) (DU-145): 6.81 µM
TGI DU-145 (DU-145): 3.80E−06 Molar
TGI LN-caP (LNCaP): 3.08E−06 Molar
GI50 (LNCaP; read-out: GI50 LN-caP): 1.42 µM
CC50 (LNCaP; read-out: LC50 LN-caP): 6.67 µM
GI50 (K-562): 1.91 µM
TGI K-562 (K-562): 4.21E−06 Molar
CC50 (K-562; read-out: LC50 K-562): 7.83 µM

C/C=C1\NC(=O)[C@H](Cc2ccccc2)NC(=O)[C@@H](C(C)C)NC(=O)[C@@H]([C@@H](C)CC)NC(=O)[C@H](NC(=O)[C@H](NC(=O)[C@H](CCCN)NC(=O)[C@H]2CCCN2C(=O)[C@H](NC(=O)[C@@H](NC(=O)[C@@H](NC(=O)[C@H](NC(=O)[C@]23CCC(C)(C)C[C@H]2C2=CC[C@@H]4[C@@]5(C)C[C@@H](O)[C@H](O)C(C)(C)[C@@H]5CC[C@@]4(C)[C@]2(C)CC3)C(C)C)[C@@H](C)O)C(C)C)C(C)C)[C@@H](C)CC)[C@@H](C)OC(=O)[C@H](C(C)C)NC1=O [Compound 101, [AM^14]-KF]
TGI (total growth inhibition) (A-549; A-549 cells, SRB): 5.49E−06 Molar
GI50 (A-549; [1]): 5.49 µM
CC50 (A-549; [2]): 5.49 µM
TGI (total growth inhibition) (HT-29; HT-29 cells, SRB): 4.60E−06 Molar
GI50 (HT-29; [3]): 4.45 µM
CC50 (HT-29; [4]): 4.86 µM
TGI (total growth inhibition) (MB-231): 5.49E−06 Molar

C/C=C1\NC(=O)[C@H](Cc2ccccc2)NC(=O)[C@@H](C(C)C)NC(=O)[C@@H]([C@@H](C)CC)NC(=O)[C@H](NC(=O)[C@H](NC(=O)[C@H](CCCN)NC(=O)[C@H]2CCCN2C(=O)[C@H](NC(=O)[C@@H](NC(=O)[C@@H](NC(=O)[C@H](NC(=O)[C@]23CCC(C)(C)C[C@H]2C2=CC[C@@H]4[C@@]5(C)CC[C@H](O)C(C)(C)[C@@H]5CC[C@@]4(C)[C@]2(C)CC3)C(C)C)[C@@H](C)O)C(C)C)C(C)C)[C@@H](C)CC)[C@@H](C)OC(=O)[C@H](C(C)C)NC1=O [Compound 102, [AO^14]-KF]
TGI (total growth inhibition) (A-549; A-549 cells, SRB): 5.54E−06 Molar
GI50 (A-549; [1]): 4.53 µM
CC50 (A-549; [2]): 5.54 µM
TGI (total growth inhibition) (HT-29; HT-29 cells, SRB): 5.54E−06 Molar
GI50 (HT-29; [3]): 5.54 µM
CC50 (HT-29; [4]): 5.54 µM
TGI (total growth inhibition) (MB-231): 5.54E−06 Molar

C/C=C1\NC(=O)[C@H](Cc2ccccc2)NC(=O)[C@@H](C(C)C)NC(=O)[C@@H]([C@@H](C)CC)NC(=O)[C@H](NC(=O)[C@H](NC(=O)[C@H](CCCN)NC(=O)[C@H]2CCCN2C(=O)[C@H](NC(=O)[C@@H](NC(=O)[C@@H](NC(=O)[C@H](N=C(N(C)C)N(C)C)C(C)C)[C@@H](C)O)C(C)C)C(C)C)[C@@H](C)CC)[C@@H](C)OC(=O)[C@H](C(C)C)NC1=O [Compound 103, [[C(═N(CH3)2)^14]-KF]
TGI (total growth inhibition) (A-549; A-549 cells, SRB): 6.83E−06 Molar
TGI (total growth inhibition) (HT-29; HT-29 cells, SRB): 6.83E−06 Molar
TGI (total growth inhibition) (MB-231): 6.83E−06 Molar

C/C=C1\NC(=O)[C@H](Cc2ccccc2)NC(=O)[C@@H](C(C)C)NC(=O)[C@@H]([C@@H](C)CC)NC(=O)[C@H](NC(=O)[C@H](NC(=O)[C@H](CCCN)NC(=O)[C@H]2CCCN2C(=O)[C@H](NC(=O)[C@@H](NC(=O)[C@@H](NC(=O)[C@H](NC(=O)CCCC(C)C)C(C)C)[C@@H](C)O)C(C)C)C(C)C)[C@H](C)CC)[C@@H](C)OC(=O)[C@H](C(C)C)NC1=O [Compound 104, [D-Ile^7]-KF]
TGI (total growth inhibition) (A-549; A-549 cells, SRB): 1.13E−06 Molar
GI50 (A-549; [1]): 0.942 µM
CC50 (A-549; [2]): 1.51 µM
TGI (total growth inhibition) (HT-29; HT-29 cells, SRB): 3.39E−07 Molar
GI50 (HT-29; [3]): 0.314 µM
CC50 (HT-29; [4]): 0.371 µM
TGI (total growth inhibition) (MB-231): 5.34E−06 Molar
GI50 (MB-231; read-out: GI50 (growth inhibition at 50%), MB-231 cells, 48 hours exposure): 5.09 µM
CC50 (MB-231; read-out: LC50 (lethal concentration at 50%), MB-231 cells, 48 hours exposure): 5.59 µM

C/C=C1\NC(=O)[C@H](Cc2ccccc2)NC(=O)[C@@H](C(C)C)NC(=O)[C@@H]([C@@H](C)CC)NC(=O)[C@H](NC(=O)[C@H](NC(=O)[C@H](CCCN)NC(=O)[C@H]2CCCN2C(=O)[C@H](NC(=O)[C@@H](NC(=O)[C@@H](NC(=O)[C@H](NC(=O)CCCC(C)C)C(C)C)[C@@H](C)O)C(C)C)C(C)C)C(C)C)[C@@H](C)OC(=O)[C@H](C(C)C)NC1=O [Compound 105, [D-Val^7]-KF] ({Hexanoyl(5-Me)}-[dV]TV[dV][dP][Orn][dV][d(aThr)][d(aIle)][dV]F[Dhb]V; ester 8-C)
TGI (total growth inhibition) (A-549; A-549 cells, SRB): 2.60E−06 Molar
GI50 (A-549; [1]): 2.28 µM
CC50 (A-549; [2]): 3.04 µM
TGI (total growth inhibition) (HT-29; HT-29 cells, SRB): 8.87E−07 Molar
GI50 (HT-29; [3]): 0.824 µM
CC50 (HT-29; [4]): 0.887 µM
TGI (total growth inhibition) (MB-231): 6.33E−06 Molar
